# Laboratory results as given in the supplement of paper PMC10307832.
# Experiments:
# Assay in all cases: relative viability (nuclei count vs DMSO), 5 days (fraction); higher = more cells survive
# [1] = test system: NCI-H2009
# Summary of the method: (§1)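 Each reported value is a median over duplicate plates. It expresses relative viability: treated-well nuclei count divided by vehicle-well nuclei count. Lung cancer cell lines in 1536-well plates were dosed by pin tool a day after seeding, alone with one drug or with a fixed anchor-drug dose plus five library-drug doses (not always all listed) in √10 steps, and nuclei were counted after 5 days.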
# [2] = test system: NCI-H441
# Summary of the method: as §1
# [3] = test system: HARA
# Summary of the method: as §1
# [4] = test system: NCI-H1651
# Summary of the method: as §1
# [5] = test system: SW 1573
# Summary of the method: as §1
# [6] = test system: LOU-NH91
# Summary of the method: as §1
# [7] = test system: NCI-H727
# Summary of the method: as §1
# [8] = test system: NCI-H23
# Summary of the method: as §1
# [9] = test system: NCI-H838
# Summary of the method: as §1
# [10] = test system: NCI-H1975
# Summary of the method: as §1
# [11] = test system: LC-2-ad
# Summary of the method: as §1
# [12] = test system: NCI-H650
# Summary of the method: as §1
# [13] = test system: UMC-11
# Summary of the method: as §1
# [14] = test system: NCI-H2170
# Summary of the method: as §1
# [15] = test system: NCI-H2087
# Summary of the method: as §1
# [16] = test system: NCI-H1650
# Summary of the method: as §1
# [17] = test system: H3255
# Summary of the method: as §1
# [18] = test system: NCI-H2228
# Summary of the method: as §1
# [19] = test system: SW 900
# Summary of the method: as §1
# [20] = test system: NCI-H2085
# Summary of the method: as §1
# [21] = test system: EPLC-272H
# Summary of the method: as §1
# [22] = test system: PC-3 [JPC-3]
# Summary of the method: as §1
# [23] = test system: NCI-H2023
# Summary of the method: as §1
smiles,measurement,setting,value
Cc1cn(-c2cc(NC(=O)c3ccc(C)c(Nc4nccc(-c5cccnc5)n4)c3)cc(C(F)(F)F)c2)cn1 [Nilotinib] + COc1cccc2cc(-c3nc([C@H]4CC[C@H](C(=O)O)CC4)n4ncnc(N)c34)[nH]c12 [OSI-027] (partner 0.5 µM),relative viability,[1]; first compound 0.001 µM,0.486
same,relative viability,[1]; first compound 0.003162 µM,0.624
same,relative viability,[1]; first compound 0.01 µM,0.765
same,relative viability,[1]; first compound 0.03162 µM,0.556
same,relative viability,[1]; first compound 0.1 µM,0.357
same,relative viability,[2]; first compound 0.001 µM,0.524
same,relative viability,[2]; first compound 0.003162 µM,0.743
same,relative viability,[2]; first compound 0.01 µM,0.52
same,relative viability,[2]; first compound 0.03162 µM,0.499
same,relative viability,[2]; first compound 0.1 µM,0.483
same,relative viability,[3]; first compound 0.001 µM,0.523
same,relative viability,[3]; first compound 0.003162 µM,0.633
same,relative viability,[3]; first compound 0.01 µM,0.469
same,relative viability,[3]; first compound 0.03162 µM,0.179
same,relative viability,[3]; first compound 0.1 µM,0.231
same,relative viability,[4]; first compound 0.001 µM,0.638
same,relative viability,[4]; first compound 0.003162 µM,0.727
same,relative viability,[4]; first compound 0.01 µM,0.842
same,relative viability,[4]; first compound 0.03162 µM,0.508
same,relative viability,[4]; first compound 0.1 µM,0.403
same,relative viability,[5]; first compound 0.001 µM,0.566
same,relative viability,[5]; first compound 0.003162 µM,0.751
same,relative viability,[5]; first compound 0.01 µM,0.72
same,relative viability,[5]; first compound 0.03162 µM,0.276
same,relative viability,[5]; first compound 0.1 µM,0.155
same,relative viability,[6]; first compound 0.001 µM,0.687
same,relative viability,[6]; first compound 0.003162 µM,0.728
same,relative viability,[6]; first compound 0.01 µM,0.736
same,relative viability,[6]; first compound 0.03162 µM,0.67
same,relative viability,[6]; first compound 0.1 µM,0.727
same,relative viability,[7]; first compound 0.001 µM,0.57
same,relative viability,[7]; first compound 0.003162 µM,0.477
same,relative viability,[7]; first compound 0.01 µM,0.697
same,relative viability,[7]; first compound 0.03162 µM,0.44
same,relative viability,[7]; first compound 0.1 µM,0.344
same,relative viability,[8]; first compound 0.001 µM,0.58
same,relative viability,[8]; first compound 0.003162 µM,0.418
same,relative viability,[8]; first compound 0.01 µM,0.418
same,relative viability,[8]; first compound 0.03162 µM,0.361
same,relative viability,[8]; first compound 0.1 µM,0.412
same,relative viability,[9]; first compound 0.001 µM,0.427
same,relative viability,[9]; first compound 0.003162 µM,0.381
same,relative viability,[9]; first compound 0.01 µM,0.377
same,relative viability,[9]; first compound 0.03162 µM,0.35
same,relative viability,[9]; first compound 0.1 µM,0.429
same,relative viability,[10]; first compound 0.001 µM,0.598
same,relative viability,[10]; first compound 0.003162 µM,0.53
same,relative viability,[10]; first compound 0.01 µM,0.149
same,relative viability,[10]; first compound 0.03162 µM,0.409
same,relative viability,[10]; first compound 0.1 µM,0.32
same,relative viability,[11]; first compound 0.001 µM,0.739
same,relative viability,[11]; first compound 0.003162 µM,0.909
same,relative viability,[11]; first compound 0.01 µM,0.795
same,relative viability,[11]; first compound 0.03162 µM,0.728
same,relative viability,[11]; first compound 0.1 µM,0.472
same,relative viability,[12]; first compound 0.001 µM,0.406
same,relative viability,[12]; first compound 0.003162 µM,0.526
same,relative viability,[12]; first compound 0.01 µM,0.486
same,relative viability,[12]; first compound 0.03162 µM,0.441
same,relative viability,[12]; first compound 0.1 µM,0.362
same,relative viability,[13]; first compound 0.001 µM,0.482
same,relative viability,[13]; first compound 0.003162 µM,0.527
same,relative viability,[13]; first compound 0.01 µM,0.432
same,relative viability,[13]; first compound 0.1 µM,0.246
same,relative viability,[14]; first compound 0.001 µM,0.662
same,relative viability,[14]; first compound 0.003162 µM,0.589
same,relative viability,[14]; first compound 0.01 µM,0.832
same,relative viability,[14]; first compound 0.03162 µM,0.828
same,relative viability,[14]; first compound 0.1 µM,0.563
same,relative viability,[15]; first compound 0.001 µM,0.477
same,relative viability,[15]; first compound 0.003162 µM,0.557
same,relative viability,[15]; first compound 0.01 µM,0.499
same,relative viability,[15]; first compound 0.03162 µM,0.221
same,relative viability,[15]; first compound 0.1 µM,0.239
same,relative viability,[16]; first compound 0.001 µM,0.691
same,relative viability,[16]; first compound 0.003162 µM,0.792
same,relative viability,[16]; first compound 0.01 µM,0.569
same,relative viability,[16]; first compound 0.03162 µM,0.464
same,relative viability,[16]; first compound 0.1 µM,0.426
same,relative viability,[17]; first compound 0.001 µM,0.547
same,relative viability,[17]; first compound 0.003162 µM,0.566
same,relative viability,[17]; first compound 0.03162 µM,0.501
same,relative viability,[17]; first compound 0.1 µM,0.621
same,relative viability,[18]; first compound 0.003162 µM,0.631
same,relative viability,[18]; first compound 0.01 µM,0.588
same,relative viability,[18]; first compound 0.03162 µM,0.449
same,relative viability,[18]; first compound 0.1 µM,0.217
same,relative viability,[19]; first compound 0.001 µM,0.46
same,relative viability,[19]; first compound 0.003162 µM,0.492
same,relative viability,[19]; first compound 0.01 µM,0.595
same,relative viability,[19]; first compound 0.03162 µM,0.354
same,relative viability,[19]; first compound 0.1 µM,0.465
same,relative viability,[20]; first compound 0.001 µM,0.695
same,relative viability,[20]; first compound 0.003162 µM,0.549
same,relative viability,[20]; first compound 0.01 µM,0.699
same,relative viability,[20]; first compound 0.03162 µM,0.428
same,relative viability,[20]; first compound 0.1 µM,0.467
same,relative viability,[21]; first compound 0.001 µM,0.24
same,relative viability,[21]; first compound 0.003162 µM,0.275
same,relative viability,[21]; first compound 0.01 µM,0.325
same,relative viability,[21]; first compound 0.03162 µM,0.246
same,relative viability,[21]; first compound 0.1 µM,0.177
same,relative viability,[22]; first compound 0.001 µM,0.702
same,relative viability,[22]; first compound 0.003162 µM,0.838
same,relative viability,[22]; first compound 0.01 µM,0.785
same,relative viability,[22]; first compound 0.03162 µM,0.703
same,relative viability,[22]; first compound 0.1 µM,0.475
same,relative viability,[23]; first compound 0.001 µM,0.303
same,relative viability,[23]; first compound 0.003162 µM,0.3
same,relative viability,[23]; first compound 0.01 µM,0.313
same,relative viability,[23]; first compound 0.03162 µM,0.277
same,relative viability,[23]; first compound 0.1 µM,0.195
